Test results reported in the supplement of paper PMC10331698.
± gives the standard deviation of the averaged measurements.

Key:
Experiment in all cases: level (log10 ratio to DMSO vehicle control); higher = higher biomarker level / cell amount than vehicle control
[1] = compound: O=C(O)C(F)(OC(F)(F)C(F)(OC(F)(F)C(F)(OC(F)(F)C(F)(F)C(F)(F)F)C(F)(F)F)C(F)(F)F)C(F)(F)F [Perfluoro-(2,5,8-trimethyl-3,6,9-trioxadodecanoic)acid] (in DMSO)
Method: (§1)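 BioMAP Diversity Plus panel of 12 human primary cell co-culture systems (3C, 4H, LPS, SAg, BT, BF4T, BE3C, CASM3C, HDF3CGF, KF3CT, MyoF, Mphg). Compounds were added 1 h before stimulation and left for 24 h (MyoF 48 h; BT 72 h for soluble read-outs or 6 d for IgG). Biomarkers were read by ELISA, cytotoxicity by SRB, PBMC viability and proliferation by Alamar Blue. Each well value was divided by the mean of 8 DMSO control wells on the same plate and log10 transformed; duplicate blinded samples were tested at 4 concentrations.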

[2] = compound: O=S(=O)(O)C(F)(F)C(F)(F)OC(F)(F)C(F)(F)F [Perfluoro(2-ethoxyethane)sulfonic acid] (in DMSO)
Method: as §1

[3] = compound: O=C(O)C(F)(F)C(F)(F)C(F)(F)OC(F)(F)F [Perfluoro(4-methoxybutanoic) acid] (in DMSO)
Method: as §1

[4] = compound: O=C(O)C=C(C(F)(F)F)C(F)(F)F [3,3-Bis(trifluoromethyl)-2-propenoic acid] (in DMSO)
Method: as §1

[5] = compound: O=C(O)C(F)(OC(F)(F)C(F)(F)C(F)(F)F)C(F)(F)F [Ammonium perfluoro-2-methyl-3-oxahexanoate] (in Water)
Method: as §1

[6] = compound: OCCC(F)(F)C(F)(F)C(F)(F)C(F)(F)F [4:2 Fluorotelomer alcohol] (in DMSO)
Method: as §1

[7] = compound: O=C(O)C(F)(F)OC(F)(F)C(F)(F)OC(F)(F)C(F)(F)OC(F)(F)C(F)(F)C(F)(F)C(F)(F)F [Perfluoro-3,6,9-trioxatridecanoic acid] (in DMSO); details: 6700 nM
Method: as §1

| Test System | level (log10) ([1]; 1100 nM) | level (log10) ([1]; 3300 nM) | level (log10) ([1]; 10000 nM) | level (log10) ([2]; 6700 nM) | level (log10) ([2]; 20000 nM) | level (log10) ([2]; 60000 nM) | level (log10) ([3]; 6700 nM) | level (log10) ([3]; 20000 nM) | level (log10) ([3]; 60000 nM) | level (log10) ([4]; 6700 nM) | level (log10) ([4]; 20000 nM) | level (log10) ([4]; 60000 nM) | level (log10) ([5]; 6700 nM) | level (log10) ([5]; 20000 nM) | level (log10) ([5]; 60000 nM) | level (log10) ([6]; 6700 nM) | level (log10) ([6]; 20000 nM) | level (log10) ([6]; 60000 nM) | level (log10) [7] |
| --- | --- | --- | --- | --- | --- | --- | --- | --- | --- | --- | --- | --- | --- | --- | --- | --- | --- | --- | --- |
| SAg:CD40 | -0.009 ± 0.0071 | -0.0015 ± 0.0021 | -0.0005 ± 0.019 | 0.0065 ± 0.0035 | 0.024 ± 0.0085 | 0.017 ± 0.0085 | -0.029 ± 0.023 | -0.034 ± 0.045 | -0.034 ± 0.052 | 0.0205 ± 0.005 | -0.01 ± 0.017 | -0.094 ± 0.038 | -0.019 ± 0.013 | -0.017 ± 0.0014 | -0.0555 ± 0.077 | -0.028 ± 0.059 | -0.036 ± 0.037 | -0.006 ± 0.068 | -0.0155 ± 0.043 |
| SAg:CD62E/E-Selectin | -0.02 ± 0.0014 | -0.031 ± 0.02 | 0.008 ± 0.042 | 0.0015 ± 0.0021 | 0.001 ± 0.0071 | 0.033 ± 0.018 | -0.01 ± 0.0028 | -0.0145 ± 0.037 | -0.0125 ± 0.037 | -0.096 ± 0.0071 | -0.192 ± 0.032 | -0.459 ± 0.11 | 0.036 ± 0.0014 | 0.022 ± 0.013 | 0.057 ± 0.0028 | -0.0125 ± 0.011 | -0.001 ± 0.011 | 0.025 ± 0.016 | -0.019 ± 0.057 |
| SAg:CD69 | -0.0135 ± 0.005 | -0.015 ± 0.0042 | -0.0095 ± 0.023 | 0.0055 ± 0.032 | 0.0065 ± 0.016 | 0.015 ± 0.021 | 0.027 ± 0.076 | 0.0345 ± 0.066 | 0.045 ± 0.086 | -0.0145 ± 0.013 | -0.0615 ± 0.0092 | -0.171 ± 0.0014 | -0.046 ± 0.0071 | -0.0265 ± 0.019 | -0.0205 ± 0.005 | -0.0265 ± 0.00071 | -0.0115 ± 0.011 | -0.0005 ± 0.0092 | -0.0065 ± 0.0021 |
| SAg:CXCL8/IL-8 | -0.0095 ± 0.028 | -0.0265 ± 0.037 | 0.0195 ± 0.026 | 0.0225 ± 0.057 | 0.0465 ± 0.016 | 0.0945 ± 0.0035 | 0.007 ± 0.0085 | 0.005 ± 0.017 | 0.01 ± 0.034 | -0.0225 ± 0.025 | -0.101 ± 0.023 | -0.227 ± 0.084 | 0.103 ± 0.0085 | 0.099 ± 0.0085 | 0.167 ± 0.047 | -0.017 ± 0.0071 | -0.018 ± 0.016 | 0.018 ± 0.034 | -0.023 ± 0.011 |
| SAg:CXCL9/MIG | -0.01 ± 0.017 | 0.008 ± 0.017 | -0.0005 ± 0.016 | 0.007 | -0.0025 ± 0.0078 | 0.0035 ± 0.005 | -0.0025 ± 0.00071 | -0.0005 ± 0.0092 | 0.011 ± 0.0028 | -0.0065 ± 0.012 | -0.017 ± 0.0099 | 0.006 ± 0.0071 | -0.006 ± 0.0085 | 0.001 ± 0.014 | 0.001 ± 0.028 | -0.0125 ± 0.0092 | 0.003 ± 0.0057 | 0.0105 ± 0.035 | -0.001 ± 0.0014 |
| SAg:PBMC Cytotoxicity | 0.002 ± 0.04 | 0.024 ± 0.027 | -0.0095 ± 0.07 | -0.025 ± 0.038 | 0.0045 ± 0.0092 | 0.0085 ± 0.0021 | 0.046 ± 0.038 | -0.007 ± 0.024 | 0.019 ± 0.0028 | -0.01 ± 0.0028 | -0.021 ± 0.016 | 0.002 ± 0.03 | -0.011 ± 0.013 | -0.024 ± 0.013 | -0.0035 ± 0.0064 | -0.021 ± 0.023 | -0.0085 ± 0.0021 | -0.0095 ± 0.005 | -0.003 ± 0.037 |
| SAg:Proliferation | 0.009 ± 0.041 | 0.0425 ± 0.0035 | 0.0335 ± 0.016 | -0.0725 ± 0.012 | -0.048 ± 0.025 | -0.038 ± 0.024 | -0.0095 ± 0.0021 | 0 ± 0.018 | -0.009 ± 0.0014 | 0.004 ± 0.0085 | -0.0715 ± 0.022 | -0.462 ± 0.032 | -0.0005 ± 0.028 | -0.043 ± 0.028 | -0.0265 ± 0.049 | -0.041 ± 0.042 | -0.033 ± 0.0071 | -0.0025 ± 0.032 | -0.0295 ± 0.042 |
| SAg:SRB | -0.007 ± 0.0071 | -0.013 ± 0.0042 | -0.0015 ± 0.0021 | -0.0125 ± 0.013 | -0.0125 ± 0.0021 | -0.0185 ± 0.0092 | -0.0145 ± 0.0078 | -0.023 ± 0.0099 | -0.017 ± 0.021 | 0.0025 ± 0.0021 | -0.006 ± 0.0085 | -0.0275 ± 0.005 | -0.019 ± 0.0042 | -0.01 ± 0.0014 | -0.0285 ± 0.0021 | -0.009 ± 0.0042 | -0.013 ± 0.016 | 0.001 ± 0.0028 | 0.0015 ± 0.013 |
